According to ChEMBL document CHEMBL1201862, “PubChem BioAssay data set” (2004):
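Where inhibition never reached the appropriate level, the endpoint shown equals the highest concentration tested. Otherwise, values were interpolated linearly from a five-concentration, 48-hour dose response in 96-well plates. GI50 marks 50% less growth.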 Activity calls are given as the source filed them. No stated cut-off is given here; in the data, active = GI50 up to about 1.1 µM and inactive = higher.

Key:
Test in all cases: DTP human tumour cell line panel, 48 h
MCF7 = tested on: MCF7
MDA-MB-435 = tested on: MDA-MB-435
EKVX = tested on: EKVX
HCT-116 = tested on: HCT-116
U-251 = tested on: U-251
UACC-62 = tested on: UACC-62
A498 = tested on: A498
SF-539 = tested on: SF-539
SK-MEL-28 = tested on: SK-MEL-28
NCI-H226 = tested on: NCI-H226
HT-29 = tested on: HT-29
NCI-H460 = tested on: NCI-H460
UACC-257 = tested on: UACC-257
OVCAR-8 = tested on: OVCAR-8
MDA-MB-231 = tested on: MDA-MB-231
SK-OV-3 = tested on: SK-OV-3
SNB-75 = tested on: SNB-75
NCI-H23 = tested on: NCI-H23
T47D = tested on: T47D
CCRF-CEM = tested on: CCRF-CEM

Row | Structure (SMILES) | GI50 (MCF7) | GI50 (MDA-MB-435) | GI50 (EKVX) | GI50 (HCT-116) | GI50 (U-251) | GI50 (UACC-62) | GI50 (A498) | GI50 (SF-539) | GI50 (SK-MEL-28) | GI50 (NCI-H226) | GI50 (HT-29) | GI50 (NCI-H460) | GI50 (UACC-257) | GI50 (OVCAR-8) | GI50 (MDA-MB-231) | GI50 (SK-OV-3) | GI50 (SNB-75) | GI50 (NCI-H23) | GI50 (T47D) | GI50 (CCRF-CEM)
1 | O=C(OCc1ccccc1CN1CCOCC1)c1ccc(Br)cc1 | 39.6 µM (inactive) | 31 µM (inactive) | 55.1 µM (inactive) | 32.6 µM (inactive) | 88.7 µM (inactive) | 55 µM (inactive) | > 100 µM (inactive) | > 100 µM (inactive) | 92 µM (inactive) | > 100 µM (inactive) | 20.5 µM (inactive) | > 100 µM (inactive) | 43.2 µM (inactive) | 85.1 µM (inactive) | 71.4 µM (inactive) | > 100 µM (inactive) | > 100 µM (inactive) | 39.4 µM (inactive) | 43.5 µM (inactive) | 
2 | COC(=O)c1csc([C@@H](OC(=O)[C@H](C)[C@H](CCCC(C)(Cl)Cl)OC(=O)c2csc([C@H](O)CO)n2)C(C)C)n1 | 18 µM (inactive) | 13.6 µM (inactive) | 17.1 µM (inactive) |  | 17.8 µM (inactive) | 11.6 µM (inactive) | 18.3 µM (inactive) | 2.92 µM (inactive) | 11.8 µM (inactive) | 19.2 µM (inactive) | 17.6 µM (inactive) | 9.89 µM (inactive) | 11 µM (inactive) | 4.61 µM (inactive) | 17.6 µM (inactive) | 16.2 µM (inactive) | 1.39 µM (inactive) | 16.4 µM (inactive) | 20.7 µM (inactive) | 17.2 µM (inactive)
3 | COc1ccc(OC)c2sc(N3C(=O)/C(=C/c4ccc(Cl)cc4)N=C3c3ccccc3)nc12 | 29.7 µM (inactive) | 30.8 µM (inactive) | > 100 µM (inactive) | > 100 µM (inactive) | 40.7 µM (inactive) | 76.6 µM (inactive) | > 100 µM (inactive) | > 100 µM (inactive) | > 100 µM (inactive) |  | > 100 µM (inactive) | 80.5 µM (inactive) | 51.2 µM (inactive) | 60.3 µM (inactive) | > 100 µM (inactive) | > 100 µM (inactive) | 89.3 µM (inactive) | > 100 µM (inactive) | 23.3 µM (inactive) | 37 µM (inactive)
4 | CCCCC(C#N)(OP1(=O)OC(c2ccccc2)C(C)N1C)c1ccccc1 (stereo unspecified) | 19.9 µM (inactive) | 17.7 µM (inactive) | 22.5 µM (inactive) | 16.2 µM (inactive) | 17.3 µM (inactive) | 14.3 µM (inactive) | 18.9 µM (inactive) | 15.5 µM (inactive) | 16.3 µM (inactive) |  | 18.1 µM (inactive) | 16.1 µM (inactive) | 18.3 µM (inactive) | 17.6 µM (inactive) | 15.7 µM (inactive) | 19.5 µM (inactive) | 18.2 µM (inactive) | 19.7 µM (inactive) | 21.3 µM (inactive) | 20.3 µM (inactive)
5 | CC[C@H]1C=CCC[C@@]2(C[C@@H]3CC[C@@H]4[C@H](C(=O)OCCCCCCCCCCCCCCCC(=O)N(CCCNC(C)=O)C[C@H](CCNC(C)=O)OC(C)=O)[C@]5(CCC[C@@H](C)O5)NC(=[N+]34)N2)O1 | 0.0861 µM (active) | 0.0432 µM (active) | 0.392 µM (active) | 0.0405 µM (active) | 0.0538 µM (active) | 0.0752 µM (active) | 0.435 µM (active) | 0.26 µM (active) | 0.757 µM (active) | 0.229 µM (active) | 0.0344 µM (active) | 0.131 µM (active) | 0.0281 µM (active) | 0.614 µM (active) | 0.0914 µM (active) | 1.43 µM (inactive) |  | 0.583 µM (active) | 0.249 µM (active) | 0.00184 µM (active)
6 | S=C(Nc1cc(Cl)c(Cl)cc1Cl)SCc1ccccc1 | 38.5 µM (inactive) | 19.8 µM (inactive) | 40.7 µM (inactive) | 32.3 µM (inactive) | 22.2 µM (inactive) | 66.5 µM (inactive) | 32.9 µM (inactive) | 23.1 µM (inactive) | 28.6 µM (inactive) | 18.5 µM (inactive) | 20.8 µM (inactive) | 45.8 µM (inactive) | 19 µM (inactive) | 20.1 µM (inactive) | 13.1 µM (inactive) | 56 µM (inactive) | 39.3 µM (inactive) | 20.1 µM (inactive) | 32.3 µM (inactive) | 
7 | C/C=C/CC(C(=O)OCC)(N(C)C(=O)OC(C)(C)C)S(=O)(=O)c1ccc(C)cc1 (stereo unspecified) | 53.7 µM (inactive) | 25.7 µM (inactive) | > 100 µM (inactive) | 70.6 µM (inactive) | 81.5 µM (inactive) | 61.9 µM (inactive) | > 100 µM (inactive) | > 100 µM (inactive) | > 100 µM (inactive) | > 100 µM (inactive) | 39.4 µM (inactive) |  | > 100 µM (inactive) | > 100 µM (inactive) | > 100 µM (inactive) |  |  | > 100 µM (inactive) | > 100 µM (inactive) | > 100 µM (inactive)
